Source: patent publication US20160184201A1, “ANTIPERSPIRANT/DEODORANT COMPOSITIONS” (COLGATE-PALMOLIVE COMPANY, priority 2013, published 2016)

Test system: Staphyloccus haemolyticus
Assay: Antimicrobial activity: minimum inhibition concentration by two-fold serial dilution in a 96-well plate (optical density, confirmed by agar streak)
Type: cell-based
Details: for bacterial growth in the first well of the 96-well plate: 1% L-Lactide solution
Experimental: 1. Formulate a 1% or 10000 ppm and 3% or 30000 ppm solution of the neat L-Lactide active tested by weight and vortex until homogeneous in a 50 mL centrifuge tube. 2. Place solutions in shaking incubator at 200 rpm and 37° C. for 1 hour. 3. Repeat the formulation of the solution and shaking incubation for 4 hour and 24 hour time points. 4. Label 96-well plate to indicate positive and negative controls and the active tested against an odor causing bacteria, Staphyloccus haemolyticus. 5. Using a 96-well plate, pipette 100 uL of Tryptic Soy Broth (TSB) into all of the wells. 6. In the first well, add 100 uL of the active solution or desired solvent for positive and negative controls to achieve a total of 200 uL in the first column of wells. 7. Set the multi-channel pipette to 100 uL and begin mixing the contents in the first column of wells and transfer 100 uL of the mixture into each successive well creating two-fold serial dilutions. 8. Repeat until the 12th column is reached making sure to dispose the 100 uL from the last well leaving 100 uL in all of the wells. 9. In the negative control wells add 100 uL of Phosphate Buffered Saline (PBS). Add 100 uL of bacteria (optical density equals to 0.1) to all other wells. 10. Incubate 96-well plate overnight at 37° C. or at room temperature for 48 hours. 11. Minimum inhibition concentration of the sample is determined by measuring the optical density of the 96 plate.

## CC1OC(=O)C(C)OC1=O [L-Lactide, 3,6-dimethyl-1,4-dioxane-2,5-dione]
1 hour of shaking incubation (200 rpm, 37° C.), first well, 4-fold dilution of the sample
  bacterial growth in the first well of the 96-well plate: some bacterial growth
4 hours of incubation, same first well, 4-fold dilution
  bacterial growth in the first well of the 96-well plate: complete bacteria kill
3% L-Lactide solution, 1 hour of shaking incubation, dilution factor 4 and 8 fold
  bacterial growth in wells 1 and 2 of the 96-well plate: no bacterial growth
3% L-Lactide solution, 24 hours of shaking incubation, third well, dilution 16 fold
  bacterial growth in the third well of the 96-well plate: bacteria growth is prevented
